{"source": "patent US20170190671A1", "about": "“BIS(ARYL)CATECHOL DERIVATIVES AS HERBICIDES” (E I DU PONT DE NEMOURS AND COMPANY, priority 2014, published 2017)", "assay_in_all_cases": "Test C preemergence", "type_in_all_cases": "in vivo", "key": {"[1]": {"test_system": "pigweed (Amaranthus retroflexus)", "conditions": "Amaranthus retroflexus, pre-emergence, 336 h, scale 0 to 100, read-out: Plant response rating, Pigweed", "summary_of_the_method": "(§1)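 0-100 visual injury score (100 = complete control), assessed at 13-15 d after treatment against controls; surfactant-containing solvent formulation applied preemergence to seeded loam-sand soil or sprayed onto 1- to 4-leaf greenhouse plants.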"}, "[2]": {"test_system": "blackgrass (Alopecurus myosuroides)", "conditions": "Alopecurus myosuroides, pre-emergence, 336 h, scale 0 to 100, read-out: Plant response rating, Blackgrass", "summary_of_the_method": "as §1"}, "[3]": {"test_system": "large (Lg) crabgrass (Digitaria sanguinalis)", "conditions": "Digitaria sanguinalis, pre-emergence, 336 h, scale 0 to 100, read-out: Plant response rating, Crabgrass, Large", "summary_of_the_method": "as §1"}, "corn (Zea mays)": {"test_system": "corn (Zea mays)", "conditions": "Zea mays, pre-emergence, 336 h, scale 0 to 100", "summary_of_the_method": "as §1"}, "[4]": {"test_system": "yellow nutsedge (Cyperus esculentus)", "conditions": "Cyperus, pre-emergence, 336 h, scale 0 to 100, read-out: Plant response rating, Nutsedge, Yellow", "summary_of_the_method": "as §1"}, "soybean (Glycine max)": {"test_system": "soybean (Glycine max)", "conditions": "Glycine max, pre-emergence, scale 0 to 100, read-out: Plant response rating, Soybean", "summary_of_the_method": "as §1"}, "[5]": {"test_system": "morningglory (Ipomoea coccinea)", "conditions": "Ipomoea, pre-emergence, 336 h, scale 0 to 100, read-out: Plant response rating, Morningglory", "summary_of_the_method": "as §1"}, "[6]": {"test_system": "waterhemp (common waterhemp, Amaranthus rudis)", "conditions": "Amaranthus tuberculatus, pre-emergence, scale 0 to 100, read-out: Plant response rating, Waterhemp", "summary_of_the_method": "as §1"}, "[7]": {"test_system": "giant foxtail (Setaria faberii)", "conditions": "Setaria faberi, pre-emergence, 336 h, scale 0 to 100, read-out: Plant response rating, Foxtail, Giant", "summary_of_the_method": "as §1"}, "[8]": {"test_system": "oilseed rape (Brassica napus)", "conditions": "Brassica napus, pre-emergence, scale 0 to 100, read-out: Plant response rating, Oilseed Rape", "summary_of_the_method": "as §1"}, "[9]": {"test_system": "ragweed (common ragweed, Ambrosia elatior)", "conditions": "Ambrosia artemisiifolia, pre-emergence, 336 h, scale 0 to 100, read-out: Plant response rating, Ragweed", "summary_of_the_method": "as §1"}, "[10]": {"test_system": "Italian ryegrass (Lolium multiflorum)", "conditions": "Lolium multiflorum, pre-emergence, 336 h, scale 0 to 100, read-out: Plant response rating, Ryegrass, Italian", "summary_of_the_method": "as §1"}, "[11]": {"test_system": "lambsquarters (Chenopodium album)", "conditions": "Chenopodium album, pre-emergence, 336 h, scale 0 to 100, read-out: Plant response rating, Lambsquarters", "summary_of_the_method": "as §1"}, "[12]": {"test_system": "winter wheat (Triticum aestivum)", "conditions": "Triticum aestivum, pre-emergence, 336 h, scale 0 to 100, read-out: Plant response rating, Wheat", "summary_of_the_method": "as §1"}, "[13]": {"test_system": "velvetleaf (Abutilon theophrasti)", "conditions": "Abutilon theophrasti, pre-emergence, scale 0 to 100, read-out: Plant response rating, Velvetleaf", "summary_of_the_method": "as §1"}}, "data": [{"compound": "N#Cc1cccc(Oc2ncc(Cl)cn2)c1Oc1ncc(C(F)(F)F)cn1", "note": "[Compound 38, 3-[(5-chloro-2-pyrimidinyl)oxy]-2-[[5-(trifluoromethyl)-2-pyrimidinyl]oxy]-benzonitrile]", "values": [{"measurement": "pest or weed control at 31 g/ha", "setting": "[1]; 31 g ai/ha, preemergence", "result": 100, "unit": "%"}, {"measurement": "pest or weed control at 62 g/ha", "setting": "[1]; 62 g ai/ha, preemergence", "result": 100, "unit": "%"}, {"measurement": "pest or weed control at 125 g/ha", "setting": "[1]; 125 g ai/ha, preemergence", "result": 100, "unit": "%"}, {"measurement": "pest or weed control at 16 g/ha", "setting": "[1]; Preemergence, 16 g ai/ha", "result": 100, "unit": "%"}, {"measurement": "pest or weed control at 31 g/ha", "setting": "[2]; 31 g ai/ha, preemergence", "result": 35, "unit": "%"}, {"measurement": "pest or weed control at 62 g/ha", "setting": "[2]; 62 g ai/ha, preemergence", "result": 50, "unit": "%"}, {"measurement": "pest or weed control at 125 g/ha", "setting": "[2]; 125 g ai/ha, preemergence", "result": 90, "unit": "%"}, {"measurement": "pest or weed control at 16 g/ha", "setting": "[2]; Preemergence, 16 g ai/ha", "result": 0, "unit": "%"}, {"measurement": "pest or weed control at 31 g/ha", "setting": "[3]; 31 g ai/ha, preemergence", "result": 100, "unit": "%"}, {"measurement": "pest or weed control at 62 g/ha", "setting": "[3]; 62 g ai/ha, preemergence", "result": 100, "unit": "%"}, {"measurement": "pest or weed control at 125 g/ha", "setting": "[3]; 125 g ai/ha, preemergence", "result": 100, "unit": "%"}, {"measurement": "pest or weed control at 16 g/ha", "setting": "[3]; Preemergence, 16 g ai/ha", "result": 100, "unit": "%"}, {"measurement": "Corn plant response rating (crop injury, 0 = no effect, 100 = complete kill) at 31 g/ha", "setting": "corn (Zea mays); 31 g ai/ha, preemergence", "result": 30, "unit": "%"}, {"measurement": "Corn plant response rating (crop injury, 0 = no effect, 100 = complete kill) at 62 g/ha", "setting": "corn (Zea mays); 62 g ai/ha, preemergence", "result": 45, "unit": "%"}, {"measurement": "Corn plant response rating (crop injury, 0 = no effect, 100 = complete kill) at 125 g/ha", "setting": "corn (Zea mays); 125 g ai/ha, preemergence", "result": 65, "unit": "%"}, {"measurement": "Corn plant response rating (crop injury, 0 = no effect, 100 = complete kill) at 16 g/ha", "setting": "corn (Zea mays); Preemergence, 16 g ai/ha", "result": 10, "unit": "%"}, {"measurement": "pest or weed control at 31 g/ha", "setting": "[4]; 31 g ai/ha, preemergence", "result": 20, "unit": "%"}, {"measurement": "pest or weed control at 62 g/ha", "setting": "[4]; 62 g ai/ha, preemergence", "result": 70, "unit": "%"}, {"measurement": "pest or weed control at 125 g/ha", "setting": "[4]; 125 g ai/ha, preemergence", "result": 85, "unit": "%"}, {"measurement": "pest or weed control at 16 g/ha", "setting": "[4]; Preemergence, 16 g ai/ha", "result": 0, "unit": "%"}, {"measurement": "plant injury at 31 g/ha", "setting": "soybean (Glycine max); 31 g ai/ha, preemergence", "result": 55, "unit": "%"}, {"measurement": "plant injury at 62 g/ha", "setting": "soybean (Glycine max); 62 g ai/ha, preemergence", "result": 60, "unit": "%"}, {"measurement": "plant injury at 125 g/ha", "setting": "soybean (Glycine max); 125 g ai/ha, preemergence", "result": 90, "unit": "%"}, {"measurement": "plant injury at 16 g/ha", "setting": "soybean (Glycine max); Preemergence, 16 g ai/ha", "result": 20, "unit": "%"}, {"measurement": "pest or weed control at 31 g/ha", "setting": "[5]; 31 g ai/ha, preemergence", "result": 80, "unit": "%"}, {"measurement": "pest or weed control at 62 g/ha", "setting": "[5]; 62 g ai/ha, preemergence", "result": 95, "unit": "%"}, {"measurement": "pest or weed control at 125 g/ha", "setting": "[5]; 125 g ai/ha, preemergence", "result": 100, "unit": "%"}, {"measurement": "pest or weed control at 16 g/ha", "setting": "[5]; Preemergence, 16 g ai/ha", "result": 40, "unit": "%"}, {"measurement": "pest or weed control at 31 g/ha", "setting": "[6]; 31 g ai/ha, preemergence", "result": 100, "unit": "%"}, {"measurement": "pest or weed control at 62 g/ha", "setting": "[6]; 62 g ai/ha, preemergence", "result": 100, "unit": "%"}, {"measurement": "pest or weed control at 125 g/ha", "setting": "[6]; 125 g ai/ha, preemergence", "result": 100, "unit": "%"}, {"measurement": "pest or weed control at 16 g/ha", "setting": "[6]; Preemergence, 16 g ai/ha", "result": 100, "unit": "%"}, {"measurement": "pest or weed control at 31 g/ha", "setting": "[7]; 31 g ai/ha, preemergence", "result": 95, "unit": "%"}, {"measurement": "pest or weed control at 62 g/ha", "setting": "[7]; 62 g ai/ha, preemergence", "result": 100, "unit": "%"}, {"measurement": "pest or weed control at 125 g/ha", "setting": "[7]; 125 g ai/ha, preemergence", "result": 100, "unit": "%"}, {"measurement": "pest or weed control at 16 g/ha", "setting": "[7]; Preemergence, 16 g ai/ha", "result": 85, "unit": "%"}, {"measurement": "plant injury at 31 g/ha", "setting": "[8]; 31 g ai/ha, preemergence", "result": 100, "unit": "%"}, {"measurement": "plant injury at 62 g/ha", "setting": "[8]; 62 g ai/ha, preemergence", "result": 100, "unit": "%"}, {"measurement": "plant injury at 125 g/ha", "setting": "[8]; 125 g ai/ha, preemergence", "result": 100, "unit": "%"}, {"measurement": "plant injury at 16 g/ha", "setting": "[8]; Preemergence, 16 g ai/ha", "result": 90, "unit": "%"}, {"measurement": "pest or weed control at 31 g/ha", "setting": "[9]; 31 g ai/ha, preemergence", "result": 25, "unit": "%"}, {"measurement": "pest or weed control at 62 g/ha", "setting": "[9]; 62 g ai/ha, preemergence", "result": 75, "unit": "%"}, {"measurement": "pest or weed control at 125 g/ha", "setting": "[9]; 125 g ai/ha, preemergence", "result": 90, "unit": "%"}, {"measurement": "pest or weed control at 16 g/ha", "setting": "[9]; Preemergence, 16 g ai/ha", "result": 0, "unit": "%"}, {"measurement": "pest or weed control at 31 g/ha", "setting": "[10]; 31 g ai/ha, preemergence", "result": 10, "unit": "%"}, {"measurement": "pest or weed control at 62 g/ha", "setting": "[10]; 62 g ai/ha, preemergence", "result": 60, "unit": "%"}, {"measurement": "pest or weed control at 125 g/ha", "setting": "[10]; 125 g ai/ha, preemergence", "result": 90, "unit": "%"}, {"measurement": "pest or weed control at 16 g/ha", "setting": "[10]; Preemergence, 16 g ai/ha", "result": 0, "unit": "%"}, {"measurement": "pest or weed control at 31 g/ha", "setting": "[11]; 31 g ai/ha, preemergence", "result": 90, "unit": "%"}, {"measurement": "pest or weed control at 62 g/ha", "setting": "[11]; 62 g ai/ha, preemergence", "result": 95, "unit": "%"}, {"measurement": "pest or weed control at 125 g/ha", "setting": "[11]; 125 g ai/ha, preemergence", "result": 98, "unit": "%"}, {"measurement": "pest or weed control at 16 g/ha", "setting": "[11]; Preemergence, 16 g ai/ha", "result": 85, "unit": "%"}, {"measurement": "plant injury at 31 g/ha", "setting": "[12]; 31 g ai/ha, preemergence", "result": 0, "unit": "%"}, {"measurement": "plant injury at 62 g/ha", "setting": "[12]; 62 g ai/ha, preemergence", "result": 15, "unit": "%"}, {"measurement": "plant injury at 125 g/ha", "setting": "[12]; 125 g ai/ha, preemergence", "result": 35, "unit": "%"}, {"measurement": "plant injury at 16 g/ha", "setting": "[12]; Preemergence, 16 g ai/ha", "result": 0, "unit": "%"}, {"measurement": "pest or weed control at 31 g/ha", "setting": "[13]; 31 g ai/ha, preemergence", "result": 90, "unit": "%"}, {"measurement": "pest or weed control at 62 g/ha", "setting": "[13]; 62 g ai/ha, preemergence", "result": 98, "unit": "%"}, {"measurement": "pest or weed control at 125 g/ha", "setting": "[13]; 125 g ai/ha, preemergence", "result": 100, "unit": "%"}, {"measurement": "pest or weed control at 16 g/ha", "setting": "[13]; Preemergence, 16 g ai/ha", "result": 45, "unit": "%"}]}]}
